Assay results reported in patent publication US5202243A, “Method of hydroxylating 3-[2-(benzoxazol-2-yl)ethyl]-5-ethyl-6-methyl-2-(1H)-pyridinone by incubation with liver slices” (Merck & Co., Inc., priority 1992, dated 1993).

Tests used:
[1] = Incubation with rat liver slices (metabolism); format: in vitro ADME; conditions: four hours
Text: Ethyl acetate extraction gave a recovery of ~70% of the tritiated material, while ~25% (~9 HPLC peaks) remained in the aqueous residue.

[2] = molecular target: T1, recombinant HIV reverse transcriptase (HIV RTR) (Human immunodeficiency virus type 1 group M subtype B, UniProt P04585); experiment: Reverse transcriptase assay (incorporation of tritiated dGMP into acid-precipitable cDNA); format: biochemical; conditions: [dGTP] and poly r(C).oligo d(G)12-18 at approx. Km; 37° C., 45 minutes; read-out: calculated IC50
T1 construct: recombinant HIV reverse transcriptase (HIV RTR)
Method: The assay measures the incorporation of tritiated deoxyguanosine monophosphate by recombinant HIV reverse transcriptase (HIV RTR) (or other RT) into acid-precipitable cDNA at the Km values of dGTP and poly r(C).oligo d(G)12-18.
Thirty uL of a reaction mixture containing equal volumes of: 500 mM Tris.HCl (pH 8.2), 300 mM MgCl2, 1200 mM KCl, 10 mM DTT, 400 μg/mL poly r(c).oligo d(G) [prepared by dissolving 1.5 mg (25 U) poly r(C).oligo d(G) in 1.5 ml sterile distilled H2 O and diluting to 400 μg/ml], 0.1 μCi/μl [^3 H] dGTP, 160 μM dGTP, were added to 10 μl sterile distilled H2 O, and 2.5 μl of potential inhibitor. An aliquot of 10 μL of 5 nM purified HIV RTR was added to initiate the reaction. The mixture was incubated at 37° C. for 45 minutes.
After incubation is complete, the tubes were cooled in ice for 5 minutes. Ice-cold 13% TCA containing 10 mM NaPPi (200 μl) are added and the mixture incubated on ice for 30 minutes. The precipitated cDNA is removed by filtration using presoaked glass filters [TCA, NaPPi ]. The precipitate is then washed with 1N HCl, 10 mM NaPPi.
The filter discs are then counted in a scintillation counter.
Under these conditions [dGTP] and poly r(C).oligo d(G)12-18 each are approximately equal to the appropriate Km value. Approximately 5-6,000 cpm of [^3 H] GMP are incorporated into acid-precipitable material. The RT reaction is concentration- and time-dependent.

| metabolised at 4 h ([1]; tritiated compound 14.18 μmol, rat liver slices 6.1 g, Williams Medium E, pH 7.4, 37° C.) | Compound | IC50 [2] | radioactive HPLC peak, % of the total metabolites ([1]; ethyl acetate extract of the rat liver slice incubation of the parent compound) |
| --- | --- | --- | --- |
| ~32% | CCc1cc(CCc2nc3ccccc3o2)c(O)nc1C [compound (II), 3-[2-(Benzoxazol-2-yl)ethyl]-5-ethyl-6-methyl-2-(1H)-pyridinone] | – | – |
| – | CCc1cc(CCc2nc3ccccc3o2)c(=O)[nH]c1CO [compound (I), 3-[2-(benzoxazol-2-yl)ethyl]-5-ethyl-6-hydroxymethyl-2 (1H)-pyridinone] | ~44 nM | 6% |
